Assays:
[1] = system: BaF3 expressing FIG-ROS(L); assay: MTS assay, growth of BaF3 cells expressing FIG-ROS(L); type: cell-based; details: for IC50: Mus musculus, BaF3, 72 h
Experimental: (§1) BaF3 and Karpas 299 cells were obtained from DSMZ (Deutsche Sammlung von Mikroorganismen and Zellkulturen GmbH, Germany). BaF3 cells, which need interleukin-3 to survive, were maintained at 37° C. in RPMI-1640 medium (Invitrogen) with 10% fetal bovine serum (FBS) (Sigma) and 1.0 ng/ml murine IL-3 (R&D Systems). Karpas 299 cells (a lymphoma cell line) were grown in RPMI-1640 with 10% FBS.
(§2) BaF3 cells were transduced with retrovirus encoding FIG-ROS(S), FIG-ROS(L), or FLT-3ITD (the Internal tandem duplication mutation in FLT3 causes AML leukemia), and selected for IL3 independent growth. Karpas 299 cells, which express NPM-ALK, was used as a positive control. Retroviruses were generated as previously described (see PCT Publication No. WO 2010/093928, incorporated by reference).
(§3) A MTS assay was performed using the CellTiter 96 Aqueous One Solution Reagent (Promega, Catalog No G3582). […] After 72 hours, 20 μl of the CellTiter 96 Aqueous One Solution Reagent was added into each well of a 96 well assay plate (flat bottom), and then 100 μl of cells grown with or without treatment. Media-only wells were used as controls. The 96 well plate was incubated for 1-4 hours at 37° C., and then viable cells were counted by reading the absorbance at 490 nm using a 96 well plate reader.

[2] = system: BaF3 expressing FIG-ROS(S); assay: MTS assay, growth of BaF3 cells expressing FIG-ROS(S); type: cell-based; details: for IC50: Mus musculus, BaF3, 72 h
Experimental: as §1, §2, §3

BaF3 expressing FLT3ITD = assay: cells; details: for IC50: Mus musculus, BaF3, 72 h
Experimental: as §1, §2, §3

Karpas 299 cells [3] = assay: cells; details: for IC50: Homo sapiens, KARPAS-299, 72 h
Experimental: as §1, §2, §3

[4] = system: BaF3 cells transduced with neo-myc; assay: MTS assay, growth of BaF3 cells transduced with neo-myc (negative control); type: cell-based; details: Mus musculus, 72 hours, second experiment only
Experimental: as §1, §3

[5] = system: BaF3 cells expressing FIG-ROS(S); assay: Flow cytometry, cleaved caspase-3 as apoptosis marker, BaF3 FIG-ROS(S); type: cell-based; details: in the presence of TAE-684, FIG. 19
Excerpt: (§4) The mechanism of death of the BaF3 and Karpas 299 cells was next assessed by measuring the percentage of cleaved-caspase 3 positive cells by flow cytometry assay using cleaved caspase-3 as a marker for apoptosis.

[6] = system: BaF3 cells expressing FIG-ROS(L); assay: Flow cytometry, cleaved caspase-3 as apoptosis marker, BaF3 FIG-ROS(L); type: cell-based; details: in the presence of TAE-684, FIG. 19
Excerpt: as §4

Karpas 299 cells [7] = assay: Flow cytometry, cleaved caspase-3 as apoptosis marker, Karpas 299; type: cell-based; details: in the presence of TAE-684, FIG. 19
Excerpt: as §4

FIG-ROS(S) = molecular target: T1, FIG-ROS(S) (Homo sapiens, UniProt P08922); assay: Western blotting of phosphorylation in FIG-ROS(S) expressing BaF3 cells; type: cell-based
T1 construct: expressed in transfected cells; host or cells: BaF3 cells, retrovirally transduced, selected for IL3-independent growth
Excerpt: (§5) All antibodies were from Cell Signaling Technology, Inc. (Danvers, Mass.)
(§6) Since ROS, ALK, LTK, InsR, and IGF1R belong to the same family of tyrosine kinases, they may share similar structure in the kinase domain.

FIG-ROS(L) = FIG-ROS(L) (Homo sapiens, UniProt P08922); assay: Western blotting of phosphorylation in FIG-ROS(L) expressing BaF3 cells; type: cell-based
Excerpt: as §5, §6

[8] = system: BaF3 cells transduced with the FLT-3ITD retrovirus; assay: Western blotting of phosphorylation in BaF3 cells transduced with the FLT-3ITD retrovirus; type: cell-based
Excerpt: as §5, §6

ALK in Karpas 299 cells = assay: Western blotting of phosphorylation in Karpas 299 cells; type: cell-based; details: 0, 10, 50, or 100 nM for three hours, FIG. 20
Excerpt: as §5, §6

[9] = 72 hours, first of two experiments
[10] = 72 hours, second of two experiments
[11] = same concentration of each, 0-1.0 uM, FIG. 21A/21B
[12] = 0, 10, 50, or 100 nM for three hours, FIG. 20
[13] = 0, 0.1, 0.3, or 1.0 uM for three hours, FIG. 22

## COc1cc(N2CCC(N3CCN(C)CC3)CC2)ccc1Nc1ncc(Cl)c(Nc2ccccc2S(=O)(=O)C(C)C)n1 [TAE-684]
[1]; 0-1000 nM, 72 hours, FIG. 18
  cellular growth response in the presence of TAE-684: stopped growing
[1]; [9]
  IC50: 1.78 nM
[1]; [10]
  IC50: 2.84 nM
[1]; [11]
  sensitivity of cellular growth, TAE-684 compared with crizotinib: more sensitive to TAE-684 than to crizotinib
[2]; 0-1000 nM, 72 hours, FIG. 18
  cellular growth response in the presence of TAE-684: stopped growing
[2]; [9]
  IC50: 10.2 nM
[2]; [10]
  IC50: 15 nM
[2]; [11]
  sensitivity of cellular growth, TAE-684 compared with crizotinib: more sensitive to TAE-684 than to crizotinib
BaF3 expressing FLT3ITD; 0-1000 nM, 72 hours, FIG. 18
  cellular growth response in the presence of TAE-684: not susceptible
BaF3 expressing FLT3ITD; first of two experiments
  IC50: 419 nM
BaF3 expressing FLT3ITD; second of two experiments
  IC50: 316 nM
Karpas 299 cells [3]; 0-1000 nM, 72 hours, FIG. 18
  cellular growth response in the presence of TAE-684: stopped growing
Karpas 299 cells [3]; first of two experiments
  IC50: 4.85 nM
Karpas 299 cells [3]; second of two experiments
  IC50: 4.36 nM
[4]
  IC50: 1640 nM
[5]
  mechanism of death, cleaved-caspase 3 positive cells (apoptosis): die by apoptosis
[6]
  mechanism of death, cleaved-caspase 3 positive cells (apoptosis): die by apoptosis
Karpas 299 cells [7]
  mechanism of death, cleaved-caspase 3 positive cells (apoptosis): did not die by apoptosis
FIG-ROS(S); [12]
  phosphorylation of FIG-ROS(S): inhibited
  phosphorylation of STAT3, AKT, and ERK, and Shp2: inhibited
FIG-ROS(L); [12]
  phosphorylation of FIG-ROS(L): inhibited
  phosphorylation of STAT3, AKT, and ERK, and Shp2: inhibited
[8]; [12]
  phosphorylation of STAT3, AKT, and ERK, and Shp2: not affected
ALK in Karpas 299 cells
  ALK and ERK phosphorylation: inhibited

## C[C@@H](Oc1cc(-c2cnn(C3CCNCC3)c2)cnc1N)c1c(Cl)ccc(F)c1Cl [crizotinib]
FIG-ROS(S); [13]
  phosphorylation of FIG-ROS(S): inhibited
  phosphorylation of STAT3 and ERK: inhibited
FIG-ROS(L); [13]
  phosphorylation of FIG-ROS(L): inhibited
  phosphorylation of STAT3 and ERK: inhibited
[8]; [13]
  phosphorylation of STAT3 and ERK: not affected

From patent US11099188B2, “ROS kinase in lung cancer” (CELL SIGNALING TECHNOLOGY, INC., priority 2006, dated 2021)
